The text below walks through data of patent US20240246944A1, “AMINO HETEROARYL COMPOUNDS AND COMPOSITIONS” (Anrui Biomedical Technology (Guangzhou) Co., Ltd., priority 2021, published 2024).

SMILES strings stand for the structures. Read-outs that look alike come from different tables or passages of the source.

The test system of data set [1] is IL-23 reporter (JAK2/Tyk2). Put plainly: IL-23 induced STAT3 QUANTI-Blue reporter assay in HEK-Blue IL-23 cells. The data set is classed as cell-based. The procedure: Biological Example 2. IL-23 Induced STAT3 QUANTI-Blue in HEK-Blue™ IL-23 Cells
HEK-Blue™ IL-23 cells were prepared at 2×10^5 cells/ml for adding 5000 cell/well and incubate plates containing compounds+cells for 1 hour at 37° C. Prepare IL-23 (treatment at final conc. 0.1 ng/mL) during incubation and add 2 ul per well of prepared cytokine in media to appropriate wells. The plate was incubated for overnight at 37° C. The next day, QUANTI-Blue solution was prepared. 18 ul of QUANTI-Blue solution per well was added into a new 384-well clear flat bottom plate, followed by addition of 2 ul of induced and treated HEK-Blue cell supernatant from overnight plate. The plate was incubated at 37° C. for 2 hours and SEAP levels determined.
In general terms: In a reporter assay the amount or activity of a reporter protein is the signal.

The target of data set [2] is N-terminal His-tagged TYK2 pseudokinase domain (Homo sapiens (Human), UniProt P29597). Description: TYK2 JH2 domain SPA binding assay. The following applies: displacement of H3 probe. The procedure:
TYK2 JH2 Domain Binding Assay
After incubating at room temperature for 30 min, the inhibition was calculated by the displacement of [3H] 3 binding as determined by scintillation counting.

Data set [3] deals with IFNα/β reporter (JAK1/Tyk2). Description: IFN-alpha/beta reporter assay in HEK-Blue IFN-a/b cells. Format: cell-based. The following applies: cellular assay. The method, then:
IFN-alpha/beta reporter assay. Seed HEK-Blue™ IFN-a/b cells (1-3×10^4 cells/well/[…]) to 96 cell plate with DMEM (10% HFBS+1% PS) and incubate overnight at 5% CO2&37° C. Diluent compounds in DMSO. Three times dilution and 10 doses. Add compounds to cell plate and incubate 1 h at 5% CO2&37° C. Add IFN-alpha/beta (5 U/ml) to cell plate and incubate overnight at 5% CO2&37° C. Prepare QUANTI-Blue Solution: add 100 μl of QB reagent and 100 μl of QB buffer to 9800 μl sterile water. Use cell supernatant and QUANTI-Blue solution in proportion of 1 to 10, incubate 2 h at 37° C. Read OD630.

A further data set has as its system IFNγ reporter (JAK1/2). Put plainly: IFN-γ reporter assay in HEK-Dual IFN-γ cells. The data set is classed as cell-based. The method, then: IFN-γ reporter assay. Seed HEK-Dual™ IFN-γ Cells (1-3×10^4 cells/well/[…]) to 96 cell plate with DMEM (10% HFBS+1% PS) and incubate overnight at 5% CO2&37° C. Diluent compounds in DMSO. Three times dilution and 10 doses. Add compounds to cell plate and incubate 1 h at 5% CO2&37° C. Add IFN-γ (0.1 ng/mL) to cell plate and incubate overnight at 5% CO2&37° C. Prepare QUANTI-Blue Solution: add 100 μl of QB reagent and 100 μl of QB buffer to 9800 μl sterile water. Use cell supernatant and QUANTI-Blue solution in proportion of 1 to 10, incubate 2 h at 37° C. Read OD630.

Another data set addresses Jak1 JH2 (Homo sapiens (Human), UniProt P23458). Put plainly: Jak1 JH2 HTRF binding. The note with it: biochemical assay.
Another data set deals with IL-2 reporter (JAK1/3). Put plainly: IL-2 reporter assay in HEK-Blue IL-2 cells. Format: cell-based. The method, then:
IL-2 reporter assay. Seed HEK-Blue™ IL-2 Cells (1-3×10^4 cells/well/[…]) to 96 cell plate with DMEM (10% HFBS+1% PS) and incubate overnight at 5% CO2&37° C. Diluent compounds in DMSO. Three times dilution and 10 doses. Add compounds to cell plate and incubate 1 h at 5% CO2&37° C. Add IL-2 (1 ng/mL) to cell plate and incubate overnight at 5% CO2&37° C. Prepare QUANTI-Blue Solution: add 100 μl of QB reagent and 100 μl of QB buffer to 9800 μl sterile water. Use cell supernatant and QUANTI-Blue solution in proportion of 1 to 10, incubate 2 h at 37° C. Read OD630.

In data set [4] the test system is IL-12/IL-18 induced IFN-gamma production. Description: In vivo inhibition of IL-12/IL-18 induced IFN-gamma. The following applies: mice, oral. The procedure: Biological Example 5. In Vivo Inhibition of IL-12/IL-18 Induced IFN-Gamma
Selected exemplified compounds of the present disclosure (compound Examples 4 and 5) and BMS986165 were dosed orally to female C57BL/6J mice (Charles River). One hour later, 0.05 μg of recombinant rat IL-12 was administered IV. Another hour later following IL-12 administration, 1 μg of recombinant rat IL-18 was administered IV. Three hours later, blood was collected and serum were obtained by centrifugation for analysis of IFNγ by ELISA.

A further data set deals with IL-23-induced psoriasis. Put plainly: In vivo mouse psoriasis model induced by human IL-23. The note with it: mice, 7.5, 15 and 30 mg/kg BID oral gavage. The procedure:
Biological Example 6. In Vivo Mouse Psoriasis Model Selected exemplified compounds of the present disclosure were also tested in a mouse psoriasis model induced by human IL-23. Psoriasis was induced in 6-8-week-old C57BL/6J female mice (Charles River) by intradermal injection of recombinant human IL-23 into the left ear. IL-23 injections were administered every other day from day 1 through day 9 of the study. Selected compounds at 7.5, 15, and 30 mg/kg, with 15 mg/kg BMS986165 as positive control were dosed BID by oral gavage, with the first dose given the evening before first IL-23 injection. Ear thickness was measured every other day, prior to the ear injection.

The next data set is described as follows: Dog PK. Format: in vivo, Beagle dogs. The note with it: beagle, plasma. The method, then: Biological Example 7. Dog PK
Selected exemplified compounds of the present disclosure were also tested in dog for pharmacokinetic studies. The Beagle dogs were fasted overnight with free access to drinking water prior to treatment. All the dosing solutions were freshly prepared prior to dose administration. In intravenous administration animal group were given a single dose of compound at 1 mg·kg-1. Blood for plasma samples were collected at pre-dose, 5, 15, 30 min, 1, 2, 4, 8, 12 and 24 h through vein into tubes anticoagulated with EDTA-K2. In intragastric administration animal group were given a single dose of compound at 5 mg·kg-1. Blood for plasma samples (˜0.5 mL) were collected at pre-dose, 15, 30 min, 1, 2, 4, 8, 12 and 24 h post-dose through vein into tubes anticoagulated with EDTA-K2. Blood samples were inverted several times and were held on wet ice pending centrifugation. The samples were centrifuged (within 20 minutes of collection) in a centrifuge set at 4° C. for 10 minutes at 1500-1600 g to obtain plasma. Plasma samples were transferred and frozen immediately after separation and stored in a freezer set at below −70° C. prior to analysis.

[5] abbreviates: HEK-Blue IL-23 cells, Table 2, read-out: IL23 reporter assay_IC50.
[6] abbreviates: HEK-Blue IL-23, cellular assay, Table 3 and text, read-out: IL-23 reporter assay (JAK2/Tyk2) IC50.
Where [7] appears, read: cellular assay, read-out: IFNγ reporter assay (JAK1/2) IC50.
[8] abbreviates: HEK-Blue, cellular assay, read-out: IL-2 reporter assay (JAK1/3) IC50.

Chain of N-terminal His-tagged TYK2 pseudokinase domain (P29597 589-875): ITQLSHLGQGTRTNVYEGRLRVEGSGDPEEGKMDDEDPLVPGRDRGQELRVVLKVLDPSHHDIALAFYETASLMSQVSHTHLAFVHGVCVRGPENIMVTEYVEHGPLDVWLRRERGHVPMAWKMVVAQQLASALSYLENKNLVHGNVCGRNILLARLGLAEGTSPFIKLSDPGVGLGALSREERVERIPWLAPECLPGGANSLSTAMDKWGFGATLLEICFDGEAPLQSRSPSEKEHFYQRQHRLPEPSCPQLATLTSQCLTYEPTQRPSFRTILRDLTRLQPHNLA
Chain of Jak1 JH2 (P23458 583-855): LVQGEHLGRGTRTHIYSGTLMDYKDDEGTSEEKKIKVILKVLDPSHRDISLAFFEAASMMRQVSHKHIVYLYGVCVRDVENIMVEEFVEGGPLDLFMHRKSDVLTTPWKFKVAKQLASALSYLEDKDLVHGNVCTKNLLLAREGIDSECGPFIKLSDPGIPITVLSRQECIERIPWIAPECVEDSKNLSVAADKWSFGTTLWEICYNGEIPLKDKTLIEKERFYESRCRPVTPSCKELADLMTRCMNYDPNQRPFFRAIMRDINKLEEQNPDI

As for `[2H]C([2H])([2H])NC(=O)c1cnc(NC(=O)C2CC2)cc1Nc1cccc(C(=O)NCc2ccc(NC(=O)C=C)cn2)c1OC` [Example 1, 4-((3-(((5-acrylamidopyridin-2-yl)methyl)carbamoyl)-2-methoxyphenyl)amino)-6-(cyclopropanecarboxamido)-N-(methyl-d3)nicotinamide], the IC50 was 318 nM in data set [1] (setting [5]) and 27 nM in data set [2].

With `[2H]C([2H])([2H])NC(=O)c1cnc(NC(=O)C2CC2)cc1Nc1cccc(-c2cc(=O)n(C3CC3)cn2)c1OC` [Example 3, 6-(cyclopropanecarboxamido)-4-((3-(1-cyclopropyl-6-oxo-1,6-dihydropyrimidin-4-yl)-2-methoxyphenyl)amino)-N-(methyl-d3)nicotinamide], the IC50 in [1] (setting [5]) stood at 6.5 nM; in data set [2] it was 16.1 nM.

On to `[2H]C([2H])([2H])NC(=O)c1nnc(NC(=O)C2CC2)cc1Nc1cccc(-n2ncc(C)n2)c1OC` [Example 13], for which, in data set [1] (setting [5]), the IC50 was found to be 38 nM.

`[2H]C([2H])([2H])NC(=O)c1nnc(NC(=O)C2CC2)cc1Nc1cc(F)cc(-n2cnc(C)n2)c1OC` [Example 12]: in data set [1] (setting [5]), the IC50 worked out at 15 nM.

In the case of `[2H]C([2H])([2H])NC(=O)c1nnc(NC(=O)C2CC2)cc1Nc1cc(F)cc(C2=NC3(CC3)C(=O)N2)c1OC` [Example 9], the IC50 in data set [1] (setting [5]) amounted to 318 nM.

For the compound `[2H]C([2H])([2H])NC(=O)c1nnc(NC(=O)C2CC2)cc1Nc1cccc(-c2cc(=O)n(C3CC3)cn2)c1OC` [Example 4, 6-(cyclopropanecarboxamido)-4-((3-(1-cyclopropyl-6-oxo-1,6-dihydropyrimidin-4-yl)-2-methoxyphenyl)amino)-N-(methyl-d3)pyridazine-3-carboxamide], the IC50 in data set [1] (HEK-Blue IL-23, HEK-Blue IL-23 cells, Table 2, read-out: IL23 reporter assay_IC50) was 18 nM; in data set [1] (setting [6]), approximately 18 nM; in [1] (cellular assay, Table 3 and text, read-out: IL-23 reporter assay (JAK2/Tyk2) IC50), 18.3 nM; in [3] (HEK-Blue), approximately 4 nM; in [3], 3.7 nM; in the data set on IFNγ reporter (JAK1/2) (setting [7]), more than 10000 nM. Besides, the IC50 is more than 10000 nM in the data set on IFNγ reporter (JAK1/2) (read-out: IC50 in IFN-gamma reporter assay (JAK1/2)); 4.99 nM at Jak1 JH2; 696 nM with IL-2 reporter (JAK1/3) (setting [8]); more than 10000 nM in the data set with IL-2 reporter (JAK1/3) (HEK-Blue, read-out: IC50 in IL-2 reporter assay (JAK1/3)). Further, the figures for the “inhibition of IFNγ production” value in data set [4] (2.5 mpk), in [4] (5 mpk) and in [4] (7.5 mpk) were 52.7%, 76.0% and 88.6%, respectively. The “inhibition of IFNγ production (reduction compared to vehicle treated group)” value in data set [4] (10 mpk) is listed as 93.3%. Besides, the “protection from IL-23-induced psoriasis (ear thickness), result in words” value in the data set on IL-23-induced psoriasis was “dose-dependently protect mice from IL-23-induced psoriasis”.

Turning to `[2H]C([2H])([2H])NC(=O)c1cnc(NC(=O)C2CC2)cc1Nc1cccc(C(=O)NCc2ccc(NC(=O)CCl)cn2)c1OC` [Example 2, 4-((3-(((5-(2-chloroacetamido)pyridin-2-yl)methyl)carbamoyl)-2-methoxyphenyl)amino)-6-(cyclopropanecarboxamido)-N-(methyl-d3)nicotinamide], the IC50 in [1] (setting [5]) stood at 15.7 nM; in data set [2] it was 5.56 nM.

As to `[2H]C([2H])([2H])NC(=O)c1nnc(NC(=O)C2CC2)cc1Nc1cc(F)cc(-n2ncc(C)n2)c1OC` [Example 14], the IC50 in data set [1] (setting [5]) was 71 nM.

For the compound `[2H]C([2H])([2H])NC(=O)c1nnc(NC(=O)C2CC2)cc1Nc1cccc(C2=NC3(CC3)C(=O)N2)c1OC` [Example 10], in data set [1] (setting [5]), the IC50 was 74 nM.

`[2H]C([2H])([2H])NC(=O)c1cnc(NC(=O)C2CC2)cc1Nc1cc(F)cc(-c2cc(=O)n(C3CC3)cn2)c1OC` [Example 6]: the IC50 in data set [1] (setting [5]) was 18 nM; in [2] it was 30 nM.

For `[2H]C([2H])([2H])NC(=O)c1nnc(NC(=O)C2CC2)cc1Nc1cccc(-c2nc(=O)n(C)[nH]2)c1OC` [Example 15], in data set [1] (setting [5]), the IC50 turned out to be 25 nM.

For `[2H]C([2H])([2H])NC(=O)c1cnc(NC(=O)C2CC2)cc1Nc1cccc(C2=NC3(CC3)C(=O)N2)c1OC` [Example 11], the IC50 in [1] (setting [5]) turned out to be 111 nM.

As usually defined, the Cmax is the maximum level reached in the sampled fluid or tissue. `[2H]C([2H])([2H])NC(=O)c1nnc(NC(=O)C2CC2)cc1Nc1cccc(-c2ncn(C)n2)c1OC` [BMS-986165, reference compound]: the IC50 was found to be 3.5 nM in data set [1] (setting [6]); 3.76 nM in data set [1] (setting [5]); 1090 nM in the data set with IFNγ reporter (JAK1/2) (setting [7]); 221 nM with IL-2 reporter (JAK1/3) (setting [8]); 221 nM in the data set on IL-2 reporter (JAK1/3) (cellular assay, read-out: IL-2 reporter assay (JAK1/3) IC50). Further, the AUC(0-t) in the data set “Dog PK” (intravenous, 1 mg/kg single dose, read-out: AUC0-t (IV)) was determined as 3.8 µM·h; in the data set “Dog PK” (po, intragastric, 5 mg/kg single dose, read-out: AUC0-t (PO)), 22.3 µM·h. This compound showed a Cmax in “Dog PK” (po, intragastric, 5 mg/kg single dose) of 2700 nM.
